Source: patent US20220362577A1, “METHODS FOR GUIDING DIRECT DELIVERY OF DRUGS AND/OR ENERGY TO LESIONS USING COMPUTATIONAL MODELING” (University of Vermont and State Agricultural College, priority 2019, published 2022)

How the values were obtained:
[1] = Cisplatin blood concentration versus time after EBUS-TBNI into a patient's lung tumor, fitted with Eq. 14; type: in vivo, human; conditions: fit of Eq. 14 to blood concentrations after five 8-mg intratumoral injections
Method: Combining Eqs. 2 and 12 gives:
The fitting was achieved by optimizing the values of the two free parameters (kf+ki) and Vf using a gradient-based algorithm to minimize the cost function: […]
Ultrasound guidance was used to attempt to distribute the 5 injections evenly throughout the tumor over an interval of 18 min.

[2] = tested on: head, neck and gastric carcinomas; conditions: assumed the same for lung carcinomas; cited from earlier work
[3] = tested on: mitochondrial respiration; conditions: cisplatin-treated cells; cited from earlier work

Structure (SMILES): N.N.[Cl][Pt][Cl] [cisplatin]
- ki+kf, sum of rate constants out of the extracellular space [1]: 0.000251 s⁻¹
- ki, rate constant of flow into the intracellular space [2]: 0.000105 s⁻¹
- concentration above which stepwise decrements in mitochondrial respiration were seen [3]: above 5.0 uM
